System: 786-0 complex spheroids with HUVEC/MSC, growth % test/control
Test: Anticancer human tumor 786-0 cell line growth inhibition [AhR];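 also: compound exposure lasted seven days before the read-out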
Settings: for IC50: curve of first compound; for viability, T/C: stronger effect = lower value; active = viability on the fitted dose curve at most 10% of control; inactive = the rest
In short: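 Spheroids combined tumor cells with HUVEC endothelial cells and human MSCs as stroma. AhR antagonists were paired with standard or investigational drugs, each dosed in half-log steps down from near clinical Cmax, or from 10 microM where Cmax was unknown.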

[1] = second compound 0.1 µM, first compound 0.0316 µM
[2] = second compound 0.1 µM, first compound 0.1 µM
[3] = second compound 0.1 µM, first compound 0.316 µM
[4] = second compound 0.1 µM, first compound 1 µM
[5] = second compound 0.1 µM, first compound 3.16 µM
[6] = second compound 0.1 µM, first compound 10 µM
[7] = second compound 0.316 µM, first compound 0.0316 µM
[8] = second compound 0.316 µM, first compound 0.1 µM
[9] = second compound 0.316 µM, first compound 0.316 µM
[10] = second compound 0.316 µM, first compound 1 µM
[11] = second compound 0.316 µM, first compound 3.16 µM
[12] = second compound 0.316 µM, first compound 10 µM
[13] = second compound 1 µM, first compound 0.0316 µM
[14] = second compound 1 µM, first compound 0.1 µM
[15] = second compound 1 µM, first compound 0.316 µM
[16] = second compound 1 µM, first compound 1 µM
[17] = second compound 1 µM, first compound 3.16 µM
[18] = second compound 1 µM, first compound 10 µM
[19] = second compound 3.16 µM, first compound 0.0316 µM
[20] = second compound 3.16 µM, first compound 0.1 µM
[21] = second compound 3.16 µM, first compound 0.316 µM
[22] = second compound 3.16 µM, first compound 1 µM
[23] = second compound 3.16 µM, first compound 3.16 µM
[24] = second compound 3.16 µM, first compound 10 µM
[25] = second compound 10 µM, first compound 0.0316 µM
[26] = second compound 10 µM, first compound 0.1 µM
[27] = second compound 10 µM, first compound 0.316 µM
[28] = second compound 10 µM, first compound 1 µM
[29] = second compound 10 µM, first compound 3.16 µM
[30] = second compound 10 µM, first compound 10 µM

COc1cc(C2c3cc4c(cc3C(OC3OC5COC(C)OC5C(O)C3O)C3COC(=O)C23)OCO4)cc(OC)c1O (stereo not given) + CC(CO)NC(=O)c1cc(-c2ccc(Cl)cc2)nn(-c2cnn(C)c2)c1=O
active: viability, T/C [6] 5.08% | viability, T/C [11] 13.1% | viability, T/C [12] 6.05% | viability, T/C [24] 5.67% | viability, T/C [30] 3.72%
inactive: viability, T/C [1] 89.7% | viability, T/C [2] 82% | viability, T/C [3] 74.2% | viability, T/C [4] 29.7% | viability, T/C [5] 18.8% | viability, T/C [7] 66% | viability, T/C [8] 72.5% | viability, T/C [9] 69.1% | viability, T/C [10] 24.9% | viability, T/C [13] 79.1% | viability, T/C [14] 94.9% | viability, T/C [15] 58.7% | viability, T/C [16] 20.2% | viability, T/C [17] 16% | viability, T/C [18] 4.53% | viability, T/C [19] 83.7% | viability, T/C [20] 65.6% | viability, T/C [21] 44.8% | viability, T/C [22] 24.4% | viability, T/C [23] 17.5% | viability, T/C [25] 88.3% | viability, T/C [26] 78.8% | viability, T/C [27] 40.2% | viability, T/C [28] 22.2% | viability, T/C [29] 13.9%
0.597 µM: IC50 (second compound 0.1 µM)
0.255 µM: IC50 (second compound 10 µM)
0.232 µM: IC50 (second compound 3.16 µM)
0.517 µM: IC50 (second compound 0.316 µM)
0.422 µM: IC50 (second compound 1 µM)

Nc1ncn(C2CC(O)C(CO)S2)c(=O)n1 (stereo not given) + CC(CO)NC(=O)c1cc(-c2ccc(Cl)cc2)nn(-c2cnn(C)c2)c1=O
inactive: viability, T/C (second compound 0.1 µM, first compound 0.000949 µM) 102% | viability, T/C (second compound 0.1 µM, first compound 0.003 µM) 97.3% | viability, T/C (second compound 0.1 µM, first compound 0.00949 µM) 99.8% | viability, T/C (second compound 0.1 µM, first compound 0.03 µM) 102% | viability, T/C (second compound 0.1 µM, first compound 0.0949 µM) 92.3% | viability, T/C (second compound 0.1 µM, first compound 0.3 µM) 67.2% | viability, T/C (second compound 0.316 µM, first compound 0.000949 µM) 101% | viability, T/C (second compound 0.316 µM, first compound 0.003 µM) 109% | viability, T/C (second compound 0.316 µM, first compound 0.00949 µM) 109% | viability, T/C (second compound 0.316 µM, first compound 0.03 µM) 107% | viability, T/C (second compound 0.316 µM, first compound 0.0949 µM) 94.8% | viability, T/C (second compound 0.316 µM, first compound 0.3 µM) 64.7% | viability, T/C (second compound 1 µM, first compound 0.000949 µM) 104% | viability, T/C (second compound 1 µM, first compound 0.003 µM) 115% | viability, T/C (second compound 1 µM, first compound 0.00949 µM) 111% | viability, T/C (second compound 1 µM, first compound 0.03 µM) 102% | viability, T/C (second compound 1 µM, first compound 0.0949 µM) 97.9% | viability, T/C (second compound 1 µM, first compound 0.3 µM) 63.1% | viability, T/C (second compound 3.16 µM, first compound 0.000949 µM) 122% | viability, T/C (second compound 3.16 µM, first compound 0.003 µM) 108% | viability, T/C (second compound 3.16 µM, first compound 0.00949 µM) 115% | viability, T/C (second compound 3.16 µM, first compound 0.03 µM) 108% | viability, T/C (second compound 3.16 µM, first compound 0.0949 µM) 92.6% | viability, T/C (second compound 3.16 µM, first compound 0.3 µM) 66.4% | viability, T/C (second compound 10 µM, first compound 0.000949 µM) 118% | viability, T/C (second compound 10 µM, first compound 0.003 µM) 116% | viability, T/C (second compound 10 µM, first compound 0.00949 µM) 117% | viability, T/C (second compound 10 µM, first compound 0.03 µM) 123% | viability, T/C (second compound 10 µM, first compound 0.0949 µM) 119% | viability, T/C (second compound 10 µM, first compound 0.3 µM) 68.1%
> 0.3 µM: IC50 (second compound 0.1 µM) | IC50 (second compound 0.316 µM) | IC50 (second compound 1 µM) | IC50 (second compound 3.16 µM) | IC50 (second compound 10 µM)

Nc1ccccc1NC(=O)c1ccc(CNC(=O)OCc2cccnc2)cc1 + CC(CO)NC(=O)c1cc(-c2ccc(Cl)cc2)nn(-c2cnn(C)c2)c1=O
4.08 µM: IC50 (second compound 10 µM)
inactive: viability, T/C [1] 107% | viability, T/C [2] 104% | viability, T/C [3] 110% | viability, T/C [4] 104% | viability, T/C [5] 73.8% | viability, T/C [6] 20.3% | viability, T/C [7] 114% | viability, T/C [8] 99.3% | viability, T/C [9] 113% | viability, T/C [10] 101% | viability, T/C [11] 76.7% | viability, T/C [12] 15.9% | viability, T/C [13] 101% | viability, T/C [14] 112% | viability, T/C [15] 98.1% | viability, T/C [16] 104% | viability, T/C [17] 68.5% | viability, T/C [18] 16.9% | viability, T/C [19] 111% | viability, T/C [20] 110% | viability, T/C [21] 110% | viability, T/C [22] 92% | viability, T/C [23] 65.7% | viability, T/C [24] 18.8% | viability, T/C [25] 113% | viability, T/C [26] 114% | viability, T/C [27] 102% | viability, T/C [28] 96.4% | viability, T/C [29] 58% | viability, T/C [30] 18.8%
4.6 µM: IC50 (second compound 3.16 µM)
5.23 µM: IC50 (second compound 0.316 µM)
5.28 µM: IC50 (second compound 0.1 µM)
4.78 µM: IC50 (second compound 1 µM)

Nc1ccccc1NC(=O)c1ccc(CNC(=O)OCc2cccnc2)cc1 + Cc1cncc(-c2nc(NCCc3c[nH]c4ccccc34)c3ncn(C(C)C)c3n2)c1
< 0.0316 µM: IC50 (second compound 10 µM)
4.61 µM: IC50 (second compound 3.16 µM)
active: viability, T/C [25] 8.31% | viability, T/C [26] 9.06% | viability, T/C [27] 3.52% | viability, T/C [28] 0.75% | viability, T/C [29] 0.39% | viability, T/C [30] 0.77%
7.82 µM: IC50 (second compound 0.316 µM)
inactive: viability, T/C [1] 119% | viability, T/C [2] 114% | viability, T/C [3] 125% | viability, T/C [4] 115% | viability, T/C [5] 106% | viability, T/C [6] 27.8% | viability, T/C [7] 118% | viability, T/C [8] 114% | viability, T/C [9] 128% | viability, T/C [10] 126% | viability, T/C [11] 115% | viability, T/C [12] 32% | viability, T/C [13] 106% | viability, T/C [14] 113% | viability, T/C [15] 121% | viability, T/C [16] 108% | viability, T/C [17] 97% | viability, T/C [18] 25.6% | viability, T/C [19] 68.1% | viability, T/C [20] 71.4% | viability, T/C [21] 65.4% | viability, T/C [22] 60.5% | viability, T/C [23] 69.2% | viability, T/C [24] 15.2%
7.2 µM: IC50 (second compound 0.1 µM)
6.75 µM: IC50 (second compound 1 µM)

O=C(c1cc(Cc2n[nH]c(=O)c3ccccc23)ccc1F)N1CCN(C(=O)C2CC2)CC1 + CC(CO)NC(=O)c1cc(-c2ccc(Cl)cc2)nn(-c2cnn(C)c2)c1=O
inactive: viability, T/C [1] 96.1% | viability, T/C [2] 101% | viability, T/C [3] 98.8% | viability, T/C [4] 102% | viability, T/C [5] 102% | viability, T/C [6] 91.5% | viability, T/C [7] 100% | viability, T/C [8] 102% | viability, T/C [9] 97.9% | viability, T/C [10] 101% | viability, T/C [11] 98.8% | viability, T/C [12] 98.9% | viability, T/C [13] 98.7% | viability, T/C [14] 102% | viability, T/C [15] 99.9% | viability, T/C [16] 103% | viability, T/C [17] 101% | viability, T/C [18] 99% | viability, T/C [19] 97.3% | viability, T/C [20] 109% | viability, T/C [21] 95.3% | viability, T/C [22] 104% | viability, T/C [23] 99.8% | viability, T/C [24] 89.9% | viability, T/C [25] 113% | viability, T/C [26] 107% | viability, T/C [27] 108% | viability, T/C [28] 114% | viability, T/C [29] 107% | viability, T/C [30] 90.9%
> 10 µM: IC50 (second compound 0.1 µM) | IC50 (second compound 0.316 µM) | IC50 (second compound 1 µM) | IC50 (second compound 3.16 µM) | IC50 (second compound 10 µM)

— PubChem BioAssay AID1919003 (Molecular Pharmacology Branch, DTP, NCI, 2023)
